Results from patent US8492341B2, “Amyloid-β binding peptides” (Alzyme Pty Ltd., priority 2006, dated 2013).
Square brackets hold non-standard residues; d marks the D form.

Experiments:
Aβ = Aβ (Homo sapiens, UniProt P05067); experiment: Copper-induced Aβ oligomer generation (SDS-PAGE, WO2 immunoblot); format: biochemical; conditions: Aβ 5 uM, Cu+2 25 μM, 0-1000 μM peptide, 37 C, 24 hours; vs reverse peptide control
Experimental: Incubation of Aβ with copper generates cross-linked oligomeric species (Atwood et al., 2000: Cell Mol Biol, 46: 777-783; Atwood et al., 2004: Biochemistry, 43: 560-568). In this experiment, Aβ (5 uM) is incubated with Cu+2 (25 μM) and 0-1000 μM of the modified peptides at 37 C for 24 hours. After the incubation period, 20 ng is loaded onto an SDS-PAGE gel and immunoblotted with WO2 antibody. Compared to the reverse peptide control, all the modified peptides inhibited the generation of Aβ oligomers at various concentration.

human Aβ42 = experiment: MTS cell viability assay of MP2 analogues, cells treated with human Aβ42 (20 μM); format: cell-based; conditions: peptide 400 μM
Experimental: FIG. 7 illustrates the effect of various peptide analogues of the peptide analogue of SEQ ID NO:2 on cell viability associated with human Aβ1-42. Cells were treated with human Aβ42 peptide (20 μM) in the absence or presence of increasing doses of MP2, MP4, MP5 or MP6 (n=6, for each peptide). Cell viability was assessed by the MTS assay.
Cells were treated with human Aβ42 peptide (20 μM) in the absence or presence of increasing doses of MP2, MP4, MP5 or MP6 (n=6, for each peptide). Cell viability was assessed by the MTS assay.

human Aβ1-42 [1] = biological target: T1, human Aβ1-42 (Homo sapiens, UniProt P05067); experiment: DCF fluorescence assay of H2O2 production (SOD-like activity) by human Aβ1-42; format: biochemical; conditions: 200 nM peptide, Aβ1-42 200 nM
T1 sequence (P05067 672-713): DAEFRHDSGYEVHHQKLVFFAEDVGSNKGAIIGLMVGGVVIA
Experimental: The three candidate peptides (15merTNP, 6merPLP and 6merMTM) were examined to determine whether they could attenuate Aβ's SOD-like activity in vitro. A DCF fluorescence assay was used to assess the efficacy of these peptides on altering the production of physiological (brain) concentrations (200 nM) of human Aβ1-42.
Aβ species were prepared and the assay run as described previously (i.e. Aβ1-42 at 200 nM and Copper and Dopamine concentrations remain unchanged). Peptide analogue MP2 (SEQ ID NO:2) was added to Aβ1-42+Cu solutions at ratios ranging from 0.005:1 to 10.0:1 (i.e. a ration of 0.005:1 would contain 1 nM of respective peptide). The peptide was dissolved in PBS pH7.5. The effect of MP2 on H2O2 production by human Aβ1-42 was determined in triplicate in three separate experiments (i.e. n=9) for doses ranging from 100 to 2000 nM (FIG. 1). These were compared against the level of H2O2 produced by human Aβ1-42 [test peptide analogue MP2+positive control peptide 15merTNP; three experiments done in triplicate, […]]. All data are presented as means±SEM.
For all assays run, the 15merTNP peptide (SEQ ID NO: 3), was included as a positive control for the assay and for comparing its activity with that of the modelled peptide analogue MP2. The effect of 15merTNP (200 nM) on H2O2 production by human Aβ1-42, was determined in triplicate in each of the 12 DCF assays (i.e. n=36) performed in this study.

M17 Neuroblastoma cells = experiment: MTS cell viability assay, cell death induced by human Aβ1-42 (40 μM); format: cell-based; conditions: for reduction of cell death associated with human Aβ1-42: Aβ1-42 40 μM
Experimental: M17 Neuroblastoma cells were seeded in a 48 well plate at a density of 50,000 cells per well. The plate was incubated for 24 hours at 37° C. in media (OPTI-MEM) containing 10% FCS. The next day the cells were treated with human Aβ1-42 (40 μM) in the presence or absence of the peptides 15merTNP or peptide analogue MP2 (FIG. 2). The peptides were provided at concentrations ranging from 20-400 μM prepared in Neuro basal media containing B27 supplement without antioxidants. Following incubation (4 days at 37° C.), cell viability was assessed using the CellTiter 96® AQueous One Solution cell proliferation assay (MTS; Promega, Wis., USA) as per manufactures instructions. Briefly, 200 μl of MTS reagent (1/10 dilution) was added directly to the culture wells and the plate incubated for 3 hours at 37° C. Following incubation, 150 μl of the solution was transferred to a 96 well plate and the absorbance is determined spectrophotometrically at 490 nm.
Similar to the MTT assay, the MTS assay is a colorimetric method for determining the number of viable cells in proliferation or cytotoxicity assays. The principle of the MTS assay is the same as the MTT assay, except for the tetrazolium compound that is bio-reduced by the mitochondria of the cells, forming a coloured formazan product that is soluble (rather than insoluble for the MTT assay) in tissue culture medium. This conversion is accomplished by NADPH or NADH produced by dehydrogenase enzymes in metabolically active cells: Berridge M V. And Tan A. S. (1993) Characterisation of the cellular reduction of 3-(4,5-dimethylthiazol-2-yl)-2,5-diphenyltetrazolium bromide (MTT): Subcellular localisation, substrate dependence and involvement of mitochondrial electron transport in MTT reduction. Arch. Biochem. Biophys. 303, 474-82.
The effect of human Aβ1-42 (40 μM) on cell viability was determined in triplicate in each of the 10 MTS assays (i.e. n=30) performed in this study. All data are presented as means±SEM.
The effect of peptide analogue MP2 to protect against human Aβ42-induced toxicity was then determined using the MTS assay in triplicate in two separate experiments for all doses (i.e. n=6), unless otherwise specified. The effectiveness of MP2 was compared against the 15merTNP.

human Aβ1-42 [2] = biological target: T1, human Aβ1-42; conditions: DCF fluorescence assay, 200 nM human Aβ1-42; earlier work PCT/AU02/01754; cited from earlier work
[3] = design: species or system mice (129×1 strain); conditions: mouse, in vivo
Experimental: Another essential requirement of drug development is the ability of the peptide to cross the BBB and impact on targeted tissue. To measure the ability of 15merTNP and peptide analogue MP2 to cross the BBB, intracerebroventricular (i.c.v) delivery was assessed. The use of i.c.v injections on animal models allows for high doses to be delivered straight to the ventricular spaces where it can cross the parenchyma layer to the brain matter.
For i.c.v injections, control mice (129×1 strain) were anesthetized with intraperitoneal ketamine/xylazine at a dose of 10 ml/kg and then administered with 200 μg of either peptide (90 nmol). Both radioactive (^3H-labelled; hot) and non-radioactive (cold) was used to allow physiological doses of peptide to be delivered.
To determine whether the peptides had effectively penetrated into the brain parenchyma, a capillary depletion experiment was performed. After 25 min post injection the animal was sacrificed and the brain removed. This was homogenized and centrifuged for 10 min at 13000 rpm at 4° C. resulting in a supernatant containing predominately radioactivity from the cortex and a pellet with radioactivity from the capillaries and endothelium. A comparison of radioactivity in each sample was conducted to assess percentage of peptide movement into the cortex. The amount of radioactivity in the capillary pellet of mice that were perfused and not perfused with saline solution was compared to determine the percentage of peptide bound to the luminal surface of the capillaries and sequestered by brain endothelial cells.
A detailed necropsy was performed on each animal following perfusion to thoroughly assess peptide movement throughout peripheral organs, central nervous tissue and blood. […] Thus the concentration of labelled tritium could be measured per mass of sample and using this and the known ratio of non-labelled peptide present, the concentration of total peptide could be determined.
The pharmacokinetic profile of peptide analogue MP2 over four time points, post i.c.v injection into the CNS was determined. […]

[4] = In vitro peptide stability in 10% rodent brain homogenate; format: in vitro ADME, rat; conditions: 10% brain homogenate, 37° C.
Experimental: For the peptide stability assay in vitro, both 15merTNP and peptide analogue MP2 were incubated separately with fresh 10% rodent brain homogenate to model degradation in tissues. In order to create a physiological dose of peptide in the in vitro assay, both radioactive (^3H-labelled; hot) and non-radioactive (cold) peptides were combined in a set ratio. Cold peptide was added at a dose of […] per ml of 10% brain homogenate. Hot peptide was added at a dose of 250 μCi per ml 10% brain homogenate. Following the addition of hot and cold peptide; the homogenate was vortexed and incubated for different time points. The reaction was stopped by adding complete protease inhibitor cocktail and the samples analysed.
The biological stability of the peptides was evaluated by incubating them (90 nmol) in fresh 10% rodent brain homogenate for different times at 37° C. The amount of intact peptide was estimated by running the supernatant of the homogenate on a 16% Tricine gel to separate peptide that had not had its amino acid sequence degraded. FIG. 3 illustrates the relative stability of 15merTNP and peptide analogue MP2 over two hours run on a 16% Tricine gel from time 0-120 min with samples run in duplicate. The values correspond to the in vitro half-life, which is defined as the time needed for 50% degradation of the peptide.

Aβ, sequence (P05067 672-713 limits assumed): as the sequence (P05067 672-713) above

Substance: Ac-Arg-Thr-Pro-Gln-Met-Leu-Lys-NH2 (Ac-RTPQMLK-NH2) [MP4]
- inhibition of Aβ oligomer formation (Aβ): most potent

Substance: Ac-DArg-DLys-DLeu-DMet-DGln-DPro-DThr-DArg-DAsn-NH2 (Ac-[dR][dK][dL][dM][dQ][dP][dT][dR][dN]-NH2; SMILES CSCC[C@@H](NC(=O)[C@@H](CC(C)C)NC(=O)[C@@H](CCCCN)NC(=O)[C@@H](CCCNC(=N)N)NC(C)=O)C(=O)N[C@H](CCC(N)=O)C(=O)N1CCC[C@@H]1C(=O)N[C@@H](C(=O)N[C@H](CCCNC(=N)N)C(=O)N[C@H](CC(N)=O)C(N)=O)[C@H](C)O) [MP6]
- cell viability following treatment with human Aβ42 (human Aβ42): significantly increased

Substance: Ac-Thr-Arg-Thr-Pro-Gln-Met-Leu-Arg-Lys-NH2 (Ac-TRTPQMLRK-NH2) [MP5]
- cell viability following treatment with human Aβ42 (human Aβ42): significantly increased
- inhibition of Aβ oligomer formation (Aβ): most potent

Substance: H-TNPNRRNRTPQMLKR-OH [15merTNP, Thr-Asn-Pro-Asn-Arg-Arg-Asn-Arg-Thr-Pro-Gln-Met-Leu-Lys-Arg, reference compound]
- reduction of human Aβ1-42's H2O2 production (human Aβ1-42 [1]): around 30%
- reduction of cell death associated with human Aβ1-42 (M17 Neuroblastoma cells; 80 μM peptide): 20%
- reduction of cell death associated with human Aβ1-42 (M17 Neuroblastoma cells; 200 μM peptide): 30%
- ability to modify Aβ1-42's SOD-like activity (human Aβ1-42 [2]): possessed the ability to modify Aβ1-42's SOD-like activity
- crossing of the blood brain barrier [3]: poorly
- Stability in rat brain homogenate (in vitro half-life) [4]: <45 min
- half-life at 2.5 mmol per ml ([4]; rat, fresh 10% brain homogenate): < 45 min

Substance: human Aβ1-42: beta amyloid peptide used as toxic agent in the cell viability assays [reference compound]
- reduction of cell viability (M17 Neuroblastoma cells; human Aβ1-42 40 μM alone, 4 days): ≤ 35%
